Assay [1] has as its system connective tissue growth factor (CTGF) expression. The assay can be described thus: CTGF expression and cell aggregation in Rat-2 cells, confocal staining. It counts as cell-based. The method, then:
Results of exemplary tests on each of FMOD and FMOD-P, alone or in combination with TGF-β on CTGF expression are shown in FIGS. 28A-28D. In these tests, 4,000 cells/well passage 18 Rat-2 cells were seeded in 8-well chamber slices in DMEM medium with 10% FBS. After 6 h adhesion, fresh DMEM medium with 0.5% FBS was employed for overnight serum starvation and then treatment media added. Treatment media were changed after 24 h. Cells were fixed and staining at 48 h. Photos were captured at 630× magnifications using a confocal microscope. In these figures, the cells were stained for CTGF (connective tissue growth factor, a factor involved in cell proliferation, migration and matrix production) or DAPI (4′,6-diamidino-2-phenylindole a fluorescent stain that binds strongly to DNA-used for nuclear staining). Merged images showing both CTGF and DAPI staining are also shown.

In assay [2] the test system is Rat-2 cells. The assay can be described thus: H&E morphology of Rat-2 cells. It counts as cell-based. As for the experimental part:
Exemplary tests were performed to better delineate cell morphology.

Assay [3] deals with α-smooth muscle actin (α-SMA) expression. The assay can be described thus: α-SMA expression staining. In kind it is cell-based. As to conditions: mono-treatment (200 nM FMOD or 100 pM TGF-β1); FIGS. 25B, 25C. As for the experimental part:
Exemplary tests on effects of FMOD and TGF-β or FMOD peptides and TGF-β on α-SMA expression were performed and shown in FIGS. 25A-25D. Expression levels of α-SMA, which is a marker for the transition of fibroblasts to myofibroblasts, were measured and presented in staining in these figures.

Assay [4] concerns the target T1, TGF-β1 (Homo sapiens, UniProt P01137). The assay can be described thus: TGF-β1 binding to biotinylated FMOD/FMOD peptides on avidin resin; non-bound TGF-β read by Mv1Lu growth inhibition (MTT). The settings on record: ratios 1:1, 10:1, 100:1, 1000:1 to TGF-β; overnight 4° C.; FIG. 13. As for the experimental part:
(§1) FMOD (whole protein) (SEQ ID NO:1), FMOD peptides and control protein BSA were biotinylated. While, the biotinylated proteins and peptides were bound to commercial available Piece Monomeric Avidin UltraLink Resin (Piece). The amounts of each test peptides/proteins are 1:1, 10:1, 100:1 and 1000:1 to TGF-βs, respectively. After washing out the non-bound residues, appropriate amount TGF-βs (based on the primary test assay) were added to the resin at 4° C. After overnight binding, non-bound TGF-βs were collected, followed by filter sterilization. Then, the TGF-βs residue were diluted 100 times in DEME-0.5% FBS to ensure the concentration was located in the linear region of TGF-βs on Mv1Lu proliferate inhibition.
(§2) Diluted TGF-βs was added to overnight serum-starved Mv1Lu, and fresh TGF-βs media were added for another 24 hour before MTT assay. Samples with no TGF-βs added were employed as controls.

For another assay, the target named is T2, TGF-β2 (Homo sapiens, UniProt P61812).
T2 sequence (P61812 303-414 limits assumed): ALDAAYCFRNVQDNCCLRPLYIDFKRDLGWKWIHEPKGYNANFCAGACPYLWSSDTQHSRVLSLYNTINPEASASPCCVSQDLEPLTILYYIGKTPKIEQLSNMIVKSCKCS
In words: TGF-β2 binding to biotinylated FMOD/FMOD peptides on avidin resin; non-bound TGF-β read by Mv1Lu growth inhibition (MTT). The settings on record: ratios 1:1, 10:1, 100:1, 1000:1 to TGF-β; FIG. 14. As for the experimental part:
as §1, §2

The target of the next assay is T3, TGF-β3 (Homo sapiens, UniProt P10600).
T3 sequence (P10600 301-412 limits assumed): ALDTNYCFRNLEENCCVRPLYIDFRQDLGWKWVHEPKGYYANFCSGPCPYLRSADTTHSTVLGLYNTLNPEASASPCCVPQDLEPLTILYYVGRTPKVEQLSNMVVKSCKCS
In words: TGF-β3 binding to biotinylated FMOD/FMOD peptides on avidin resin; non-bound TGF-β read by Mv1Lu growth inhibition (MTT). The settings on record: ratios 1:1, 10:1, 100:1, 1000:1 to TGF-β; FIG. 15. As for the experimental part: as §1, §2

For assay [5], the target named is T1, TGF-β1. The assay can be described thus: ELISA analysis of binding with TGF-β1. The settings on record: BSA as negative control; FIG. 3. From the text: Bovine serum albumin (BSA) was used as negative control.
SUMO-CAT from the recombinant bacteria harboring control plasmid pET_SUMO/CAT was used as negative control. To the knowledge of inventors, the TGF-binding sites within FMOD have not been reported.

The subject of assay [6] is Rat-2 cells. The assay can be described thus: Rat-2 cell migration by scratching method. It counts as cell-based. The settings on record: alone (200 nM FMOD or 100 pM TGF-β), 24 hours. The method, then: 1×10^6 cell/well Rat-2 cells were seeded in 6-well plated with 3 ml DMEM-10% FBS. After 6 hours for adhesion, fresh DMEM-0.5% FBS medium was changed for serum-starving overnight. After pre-warmed DMEM rinsing, four wounds (each 1 mm wide; two horizontal and two vertical) were scratched employing a 1-ml tip for each treatment group. Cells were rinsed by DMEM for three times, followed by incubation with treatment medium [DMEM-0.5 FBS containing 100 pM (2.5 ng/ml) TGF-β1 (SEQ ID NO:64) or -β3 (SEQ ID NO:66) w/o 200 nM (11.2 μg/ml) FMOD (SEQ ID NO:1)] for 24 hours. Photos were captured at both 0-h and 24-h after the scratching. The unclosed distance was measured and quantified as an average gap (A) and migration index (B). Similar results were reproduced in four independent experiments. The scale bar in (A) equal to 100 The asterisks in (B) present P<0.05.
(§3) Similar to FMOD (whole protein), the effect of FMOD peptides and/or TGF-β on cell migration was also evaluated by scratching method (FIGS. 18C and 25D). At the same time, cell migration/invasion in Matrigel was documented at 100× magnificent after 24 hour treatment and quantitated using DAPI nuclear staining (100 rather than 200× magnification was used because one group's invasion is quite low) (see the results in FIG. 20A and DAPI pictures in FIG. 20B). Passage 18 Rat-2 cells (20,000 cells/well) were used for the test under the treatment of 100 pM TGF-β1 (SEQ ID NO:64)/133 (SEQ ID NO:66) with/without 200 nM FMOD-F07-40C in DMEM-0.5% FBS.

Assay [7] deals with Rat-2 cells. In words: Rat-2 cell migration/invasion in Matrigel, DAPI nuclear staining. In kind it is cell-based. As to conditions: alone (200 nM FMOD or peptide, or 100 pM TGF-β), 24 hour treatment. The method, then:
Cell migration/invasion in Matrigel was documented at 200× magnificent after 24 hour treatment and quantitated using DAPI nuclear staining (results shown in FIG. 19A and repeat results in FIGS. 26B and 26C; DAPI pictures are shown in FIG. 19D).
as §3
Passage 18 Rat-2 cells (20,000 cells/well) were used for the test under the treatment of 100 pM TGF-β1/β3 with/without 200 nM FMOD-F06-40C in DMEM-0.5% FBS (FIG. 20C).

Assay [8] deals with T4, Bovine serum albumin (BSA) (bovine, UniProt P02769 25-607).
T4 construct: also called control BSA; control protein BSA
T4 sequence (P02769 25-607 limits assumed): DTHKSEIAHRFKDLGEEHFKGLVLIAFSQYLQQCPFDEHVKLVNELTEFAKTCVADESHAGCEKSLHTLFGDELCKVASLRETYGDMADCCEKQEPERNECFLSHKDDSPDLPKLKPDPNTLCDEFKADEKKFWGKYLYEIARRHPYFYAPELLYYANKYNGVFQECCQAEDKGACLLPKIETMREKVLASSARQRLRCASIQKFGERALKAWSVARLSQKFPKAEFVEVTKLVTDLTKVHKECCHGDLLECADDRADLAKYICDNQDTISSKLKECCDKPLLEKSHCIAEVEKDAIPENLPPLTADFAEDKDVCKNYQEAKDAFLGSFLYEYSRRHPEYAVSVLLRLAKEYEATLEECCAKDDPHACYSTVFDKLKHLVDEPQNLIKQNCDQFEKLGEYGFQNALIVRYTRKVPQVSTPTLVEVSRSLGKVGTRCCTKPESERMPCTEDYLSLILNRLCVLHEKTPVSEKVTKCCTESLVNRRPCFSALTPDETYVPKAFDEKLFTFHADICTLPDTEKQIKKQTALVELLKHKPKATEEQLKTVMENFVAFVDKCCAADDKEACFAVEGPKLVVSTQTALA
The assay can be described thus: biotinylated protein on avidin resin, unbound TGF-β read by Mv1Lu growth inhibition (MTT). The method, then:
as §1, §2

Data on four molecules can be found in US20160304573A1, “FIBROMODULIN PEPTIDE” (The Regents of the University of California, priority 2010, published 2016).

T1 sequence (P01137 279-390 limits assumed): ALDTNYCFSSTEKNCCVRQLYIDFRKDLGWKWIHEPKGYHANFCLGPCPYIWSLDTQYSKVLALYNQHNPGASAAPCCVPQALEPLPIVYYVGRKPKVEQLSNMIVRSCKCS

With TGF-β1: TGF-β isoform, SEQ ID NO:64, the CTGF expression entry in [1] (mono-treatment (200 nM FMOD or 100 pM TGF-β1), 48 h, FIGS. 21B, 21C) is “moderate CTGF expression”. Besides, in [1] (mono-treatment, another set of similar studies, FIG. 24), the “CTGF expression (green fluorescence)” value is “increases expression of CTGF”. Also, the “nodule-like cell aggregations/condensations, number” value in the assay on Rat-2 cells [2] (100 pM TGF-β1 alone, 8-well chamber slides) was “< one”. Moreover, in the assay on Rat-2 cells [2] (mono-treatment (200 nM FMOD or 100 pM TGF-β1), relative to controls), the “cell aggregation/density (H&E)” value is recorded as “slightly increased the Rat-2 cell density”. Also, in [3], the α-SMA staining entry is reported as “moderate α-SMA staining”.
On to “Bovine serum albumin [BSA, reference compound]”, for which the TGF-β1 binding result on TGF-β1 [4] is listed as “minimal TGF-β1 binding except at very high ratios”. Moreover, the TGF-β2 binding result at TGF-β2 is “minimal TGF-β2 binding”. Also, on TGF-β3, the TGF-β3 binding result was “did not bind to TGF-β3 even at high ratios”.

B1: native extract bovine FMOD: native extract bovine FMOD, comparator in ELISA (protein)
chain: QYEEDSHWWFQFLRNQQSTYDDPYDPYPYEPYEPYPYGGEEGPAYAYGSPPQPEPRDCPQECDCPPNFPTAMYCDNRNLKYLPFVPSRMKYVYFQNNQISSIQEGVFDNATGLLWIALHGNQITSDKVGKKVFSKLRHLERLYLDHNNLTRIPSPLPRSLRELHLDHNQISRVPNNALEGLENLTALYLHHNEIQEVGSSMKGLRSLILLDLSYNHLRKVPDGLPSALEQLYLEHNNVFSVPDSYFRGSPKLLYVRLSHNSLTNNGLASNTFNSSSLLELDLSYNQLQKIPPVSTNLENLYLQGNRINEFSISSFCTVVDVMNFSKLQVLRLDGNEIKRSAMPADAPLCLRLASLIEI
For the molecule B1, the “binding with TGF-β1 in ELISA assay” value with TGF-β1 [5] is listed as “able to bind with TGF-β1”.

B2: TGF-β3 (ligand)
chain: NCCVRPLYIDFRQDLGWKWVHEPKGYYANFCSGPCPYLRSADTTHSTVLGLYNTLNPEASASPCCVPQDLEPLTILYYVGRTPKVEQLSNMVVKSCKCS
On to B2, for which the “cell migration, scratch” value with Rat-2 cells [6] was “inhibited migration”. For the same molecule, the “cell migration/invasion in Matrigel” value with Rat-2 cells [7] is on record as “inhibited migration”. Further, the binding result in [8] is listed as “no binding”.
